Counter-ions that a name gives are not always drawn.

This is an account of results in patent US20120035187A1 (priority 2009, published 2012).

Series [1] concerns APP Tg mouse. In words: Water maze test, APP transgenic mouse. Format: in vivo. Conditions: dose 200 μg/kg body weight, time required for arriving the platform.
Series [2] relates to APP Tg mouse. In words: Passive avoidance test, APP transgenic mouse. The settings on record: dose 200 μg/kg body weight, five times a week for 12 weeks. Format: in vivo.
The test system of series [3] is brain ischemia rat. Description: Brain ischemia (cerebral infarction model) rat: behavioral score. The class given is in vivo. Also noted: Behavioral score: scale not given here. The settings on record: for Behavioral score: embolus rat, caudal vein. The procedure: Male SD rats, seven- to eight-weeks of age and 280 to 330 g body weight, commercialized by Charles River Laboratories Japan Inc., Kanagawa, Japan, were allocated randomly into seven groups, consisting of five to seven rats in each group. Among the seven groups, five groups were subjected to the following surgery as test groups: Rats in the test groups were subcutaneously administered with 0.3 mg/kg body weight of atropine, commercialized by Fuso Pharmaceutical industries, Osaka, Japan. Successively, each rat was anesthetized by administrating 600 mg/kg body weight of urethane, commercialized by Sigma-Aldrich Co., MO, USA, and 60 mg/kg-weight of […], commercialized by Sigma-Aldrich Co., MO, USA, into the peritoneal cavity, and fixed to a fixator under voluntary breathing conditions. The right carotid artery bifurcation was exposed by median incision of the neck without damaging vagus nerve. The common carotid artery and external carotid artery around the right carotid artery bifurcation were exfoliated from surrounding connective tissue and wired respectively using “NESCOSUTURE”, a 6-0 nylon string commercialized by Alfresa Pharma Corporation, Osaka, Japan. Then, the internal carotid artery was tied with the 6-0 nylon string for fixation after insertion of an obturator. Successively, the common carotid artery was incised and a silicon-coated obturator, prepared by a 4-0 nylon string, commercialized by Doccol Corp., CA, USA, was inserted from the common carotid artery into the internal carotid artery at a distance of about 16 mm, and clipped to the common carotid artery (see, for example, Koizumi et al., Cerebral stroke, Vol. 8, No. 1, pp. 1-8 (1986)). By the method, the silicon-coated tip of obturator was inserted through the right carotid artery bifurcation to frontal cerebral artery at a distance of about 2 mm and obstructs the inlet of the medial cerebral artery. After two hours occlusion of the medial cerebral artery while keeping the rat on an isothermal pad controlled at a temperature of 37° C., blood was allowed to reperfuse by withdrawing the obturator. Then, the internal carotid artery was tied near the carotid artery bifurcation for preventing the bleeding from the incised part of the common carotid artery. In the model, the blood was reperfused through the left carotid artery, vertebral artery, basilar artery, frontal and backward communication artery because the right carotid artery was clipped.
NK-4, NK-19, NK-53, NK-100, and NK-557, used in the test, were respectively dissolved in DMSO (product No. “D8418”, commercialized by Sigma-Aldrich Co., MO, USA) to give a concentration of 5 mg/ml and filtrated using “MILLEX-LG SLLG025SS”, a DMSO-resistant membrane filter commercialized by Millipore, MA, USA. Stock […], and then 4 ml/kg body weight of any of the resulting diluted solutions was administered ([…]) to five test groups (test groups 1 to 5) consisting of five or seven rats, through their caudal veins at both after one hour from the occlusion of middle cerebral artery and immediately after initiating reperfusion. After 24 hours from the reperfusion of blood, behavioral and histological evaluations of rats were carried out according to the following procedures: As a control group 1, five rats in one group out of the remaining two groups were subjected to the same surgery as the rats in the test groups 1 to 5, and administered with 4 ml/kg body weight of PBS free of any of the compounds through their caudal veins at both after one hour of the medial cerebral artery occlusion and immediately after the start of reperfusion. As the control group 2, six rats in the remaining one group were subjected to a sham surgery, in which common, external, and internal carotid arteries were clipped and then reperfused their blood without inserting the obturator to each medial cerebral artery. […]

Series [4] in a line: Hydroxyl radical-scavenging activity, ESR (Fenton reaction). The procedure:
Stock solutions, prepared by dissolving NK-4, NK-19, NK-53, NK-100, and NK-557 in DMSO, were respectively diluted with refined water to give concentrations of 3-folds higher than those in Table 14 and used as test sample solutions. As a positive control, a neuroprotectant, “edaravone”, commercialized as “RADICUT®” containing 3-methyl-1-phenyl-2-pyrazoline-5-one as an effective ingredient by Mitsubishi Tanabe Pharma Corporation, Osaka, Japan, was diluted with refined water to give a concentration of 3-folds higher than that in Table 14 for use. To 50 μl of refined water, 50 μl of 89 mM DMPO ([…]) commercialized by Dojindo Laboratories, Kumamoto, Japan, 50 μl of the test sample solution, and 50 μl of an aqueous solution containing 1 mM hydrogen peroxide, 1 mM FeSO4, and 1 mM DTPA, commercialized by Wako Pure Chemical Industries, Osaka, Japan, were added, mixed for 10 seconds using a vortex mixer and allowed to react in an incubator controlled at 37° for 40 seconds. After 30 seconds from completion of the reaction, the resulting reaction mixture was subjected to ESR measurement. A control solution was prepared by the same method as above except for using 50 μl of a diluted edaravone solution as a substitute for the test sample solution, and subjected to ESR measurement.
The reaction mixture for measuring hydroxyl or peroxyl radicals was poured into a flat quartz cell for ESR, set to “FREE RADICAL MONITOR JES-FR30”, an ESR apparatus commercialized by JOEL Ltd., Tokyo, Japan, and ESR was measured according to manual manner. The residual ratio of peroxyl radical (%) was determined as a relative value by defining the ESR value, obtained by using 0.1 M phosphate buffer as a substitute of the test sample solution, as 100. The results are in Tables 14 and 15. […] Therefore, the IC50 of edaravone was determined by another test using its higher concentration, and the result is also shown in Table 14. The conditions of the ESR measurement were set as follows: […]

For series [5], the system named is PC12-HS cells. Also noted: suppression of cytotoxicity by 6-hydroxy dopa (in words): dose or concentration left out as unconfirmed.
Method: 6-Hydroxy dopa was used as a cytotoxic agent. Similarly as in Experiment 1, PC12-HS cells, which had been cultured in D-MEM medium supplemented with 10 v/v % FBS, were inoculated to 96-well microplates by 2×10^4/100 μl/well. […] Thereafter, the cells were fixed with 10% glutaraldehyde and the absorbance at 650 nm was measured by conventional dye-uptake method using methylene blue.
In series [6] the test system is brain ischemia rat. Description: Brain ischemia (cerebral infarction model) rat: size/volume of cerebral infarction region (TTC). The class given is in vivo. Conditions: for Volume of cerebral infarction region (mm^3): embolus rat, caudal vein.
[7] abbreviates: Experiment 13, cerebral-infarction-model rat, administered through caudal vein.

Take `COc1cc2c(cc1OC)C(=O)C(CC1CCN(Cc3ccccc3)CC1)C2` (stereo not shown) [Donepezil HCl]: in series [1] (1st day), the “Water maze test 1st day” value came to 120 ± 0. In addition, in series [1] (2nd day), the “Water maze test 2nd day” value is recorded as 77 ± 19. For the same compound, in series [1] (3rd day), the “Water maze test 3rd day” value came to 53 ± 13. In addition, the “Water maze test 4th day” value in series [1] (4th day) is given as 62 ± 16. In series [2], the “Passive avoidance reaction” value came out at 200 ± 61 s.

For `CC1=NN(c2ccccc2)C(=O)C1` [Edaravone, 3-methyl-1-phenyl-2-pyrazoline-5-one, reference compound], in series [3] (setting [7]), the “behavioral score (in words)” value is on record as “significantly improved”. Moreover, the figures for the Behavioral score in series [3] (dose 0.3 mg per kg body weight), in series [3] (dose 1 mg per kg body weight) and in series [3] (dose 3 mg per kg body weight) were 4.7 ± 0.4, 3.7 ± 0.5 and 4.8 ± 0.2, respectively. In addition, in series [4], the “IC50 (μg/ml) of hydroxyl radical-scavenging activity” value is 148.0 µg/mL. Also, the “Residual ratio of hydroxyl radical (%)” value in series [4] (concentration of compound 2.5 μg/ml), in series [4] (concentration of compound 3.13 μg/ml), in series [4] (concentration of compound 6.25 μg/ml) and in series [4] (concentration of compound 12.5 μg/ml) was 100% throughout. Further, the “suppression of cytotoxicity by 6-hydroxy dopa (in words)” value in series [5] is “can not suppress the cytotoxicity”. Also, in series [6] (setting [7]), the “increment of the volume of cerebral infarction region (in words)” value is reported as “not significantly suppressed”. The “Volume of cerebral infarction region (mm^3)” value in series [6] (dose 0.3 mg per kg body weight) is given as 179 ± 27 mm^3; in series [6] (dose 1 mg per kg body weight) it was 152 ± 28 mm^3; in series [6] (dose 3 mg per kg body weight), 183 ± 16 mm^3.
